# Data taken from patent publication US20240139188A1, “Arylamide Compounds For Treatment And Prevention Of Fungal Infections” (priority 2022, published 2024).
# “And” between values parts separate entries of the source, which are not always exact repeats. Equal entries are not always repeated.
# What was measured:
# [1] = test system: CrzA:GFP; assay: CrzA:GFP translocation to the nucleus; settings: CAS 0.07 μg/ml, 30 minutes
# Procedure: Conidia were germinated in YG medium and grown for 13 hours and then exposed or not to BRI, CAS, and BRI+CAS for 30 minutes.
# [2] = test system: A. fumigatus null mutants; assay: Phosphatase and kinase null mutant screening; type: cell-based, Aspergillus fumigatus; further: key: +: sensitivity similar to wild-type; −: more sensitive than the wild-type
# Procedure: Phosphatase and kinase null mutant screening: An A. fumigatus phosphatase deletion library encompassing 25 null mutants for phosphatase catalytic subunits (Winkelströter et al., G3 (Bethesda), 2015, 5, 1525-39) was screened for sensitivity to the combination of CAS+BRI. […] In each well a total of 200 μL of liquid MM plus conidia from the different mutants (1×10^4 conidia/mL) was incubated in the presence of BRI (20 μM).
# [3] = test system: C. neoformans; assay: BRI+CAS against yeasts, colony forming units; settings: CAS 16 μg/ml alone, 48 hours
# Procedure: Combination of Brilacidin and caspofungin against yeasts: For measuring the effect of the combination BRI+CAS against yeast fungal pathogens, two methods were used: (i) metabolic activity by XTT-assay and (ii) colony forming units (CFUs). For the first method, C. neoformans, C. albicans, and C. auris 10^4 cells were inoculated in RPMI-1640 supplemented with CAS 0 to 32 μg/ml (for C. neoformans) and 0 to 1 μg/ml (for Candida spp.) or the same concentrations of CAS combined with BRI 0.625 μM (for C. neoformans), BRI 20 μM (for C. albicans), and BRI 10 μM (for C. auris). […] XTT-assays were also used for C. albicans caspofungin resistant strains but with CAS 0.5 μg/ml combined with BRI 5, 10 or 20 μM. The same experimental design was used for the CFUs determination, except that after 48 hours the cells present in the wells were plated on YPD (yeast extract 10g, peptone 20g, dextrose 20g, agar 20 g, water 1000 mL) and the plates were incubated at 30° C. for 24-48 hours for determining the survival percentage.
# [4] = test system: chitin synthase genes; assay: Chitin synthase mRNA accumulation (RT-qPCR); settings: wild-type strain, 1 hour exposure; not in the mutant strains
# Procedure: RNA-sequencing. cDNA synthesis and RTqPCR: All experiments were carried out in biological triplicates and conidia (10^7) were inoculated in liquid MM and A. fumigatus strains were grown for 16 hours at 37 ° C. and treated or not with different concentrations of BRI, CAS, or BRI+CAS for 1 hour. For total RNA isolation, mycelia were ground in liquid nitrogen and total RNA was extracted using TRIzol (Invitrogen), treated with RQ1 RNase-free DNase I (Promega), and purified using the RNAeasy kit (Qiagen) according to the manufacturer's instructions. RNA was quantified using a NanoDrop and Qubit fluorometer, and analyzed using an Agilent 2100 Bioanalyzer system to assess the integrity of the RNA.
# For RT-qPCR, the RNA was reverse transcribed to cDNA using the ImProm-II reverse transcription system (Promega) according to manufacturer's instructions, and the synthesized cDNA was used for real-time analysis using the SYBR green PCR master mix kit (Applied Biosystems) in the ABI 7500 Fast real-time PCR system (Applied Biosystems, Foster City, CA, USA).
# [5] = test system: C. neoformans; assay: MIC for yeasts, CLSI M27-A3; type: cell-based, Cryptococcus neoformans; settings: Cryptococcus neoformans H99; read-out: MIC CAS
# [6] = test system: A. fumigatus cell membrane potential; assay: Membrane potential determination, DiBAC4(3); type: cell-based, Aspergillus fumigatus; settings: CAS 0.125 μg/ml, 30 minutes
# Procedure: Membrane potential determination: […] Biotechnol., 2021, 14, 262-276) with modifications. […] After, the germlings were washed with sterile PBS (140 mM NaCl, 2 mM KCl, 10 mM NaHPO4, 1.8 mM KH2PO4, pH 7.4). The fluorescence was analyzed with excitation wavelength of 450-490 nm, and emission wavelength of 525-550 nm on the Observer Z1 fluorescence microscope (Carl Zeiss) using the 100× with Differential interference contrast (DIC) images. Fluorescent images were captured with an AxioCam camera (Carl Zeiss, Inc.) and processed using the Axio Vision software (version 4.8).
# [7] = test system: A. fumigatus clinical isolates; assay: Growth inhibition of clinical isolates by CAS, VOR, BRI and combinations
# [8] = test system: A. fumigatus biofilms; assay: Biofilm assay (XTT); settings: Aspergillus fumigatus, read-out: inhibition of biofilm formation
# Procedure: Biofilm assay: To test the susceptibility of pre-formed A. fumigatus biofilms to
# VOR, CAS and to the combination of CAS+BRI and VOR+BRI, a suspension containing 10^6 conidia per mL of the wild-type strain (Δku80 pyrG^+) was prepared in liquid MM and 100 μL of it was inoculated in each well of a 96-well plate. After 24 hours of incubation at 37° C., 50 μL of fresh MM containing CAS, VOR or the combination of VOR and CAS with BRI was added to the biofilm to reach the final concentration as indicated and incubated for a further 12 hours at 37° C. Wells containing untreated conidia were used as a positive control. After, the metabolic activity of the cells was evaluated by adding 50 μL of an aqueous XTT solution (1 mg/mL of XTT and 125 μM of menadione) to each well. The plate was incubated for additional 1 hour at 37° C., centrifuged (2000 rpm, 5 minutes) and 100 μL of the supernatant was transferred to a flat-bottomed 96-well plate. The absorbance was measured at 450 nm on a plate reader (Synergy HTX Multi-Mode Reader- BioTek Instruments). The XTT assay's were performed in six replicates.
# [9] = test system: A. fumigatus; assay: MIC/MEC, CLSI M38-A2; type: cell-based, Aspergillus fumigatus
# [10] = test system: C. auris; assay: MIC for yeasts, CLSI M27-A3; type: cell-based, Candida auris
# [11] = test system: A. fumigatus; assay: Fungal burden, chemotherapeutic murine model of IPA; type: in vivo, BALB/c mice; settings: CAS 1 mg/kg, 3 days post-infection, vs non-treated mice
# Procedure: Fungal burden: Inbred female mice (BALB/c strain; body weight, 20-22 g) were housed in vented cages containing five animals. Mice were immunosuppressed with cyclophosphamide (150 mg per kg of body weight), which was administered intraperitoneally on days −4, −1 and 2 prior to and post infection (infection day is “day 0”). Hydrocortisonacetate (200 mg/kg body weight) was injected subcutaneously on day −3. Mice (5 mice per group) were anesthetized by halothane inhalation and infected by intranasal instillation of 20 μL of 1.0×10^6 conidia of A. fumigatus Δku80 pyrG^+ (wild-type) (the viability of the administered inoculum was determined by incubating a serial dilution of the conidia on MM medium, at 37° C.). As a negative control, a group of 5 mice received PBS only. […]
# DNA quantity and quality were assessed using a NanoDrop 2000 spectrophotometer (Thermo Scientific). Quantitative real-time PCRs were performed using 400 ng of total DNA from each sample, and primers to amplify the 18S rRNA region of A. fumigatus and an intronic region of mouse GAPDH (glyceraldehyde-3-phosphate dehydrogenase). Six-point standard curves were calculated using serial dilutions of gDNA from A. fumigatus strain and the uninfected mouse lung. Fungal and mouse DNA quantities were obtained from the threshold cycle (Ct) values from an appropriate standard curve.
structure (smiles),measurement,setting,value
"CC[C@H](C)C[C@H](C)CCCCCCCCC(=O)N[C@H]1C[C@@H](O)[C@@H](NCCN)NC(=O)[C@@H]2[C@@H](O)CCN2C(=O)[C@H]([C@H](O)CCN)NC(=O)[C@H]([C@H](O)[C@@H](O)c2ccc(O)cc2)NC(=O)[C@@H]2C[C@@H](O)CN2C(=O)[C@H]([C@@H](C)O)NC1=O [CAS, caspofungin]",germlings with CrzA:GFP in the nuclei,[1],28.3%
same,"sensitivity, CAS (0.25 μg/mL)",[2]; Afs35 (wild-type; A1159),+
same,"sensitivity, CAS (0.25 μg/mL)",[2]; CEA17 (wild-type; A1160),+
same,"sensitivity, CAS (0.25 μg/mL)",[2]; ΔcalA (Afu5g09360),+
same,"sensitivity, CAS (0.25 μg/mL)",[2]; ΔcdcA (Afu3g12250),+
same,"sensitivity, CAS (0.25 μg/mL)",[2]; ΔdspA (Afu1g13040),+
same,"sensitivity, CAS (0.25 μg/mL)",[2]; ΔdspB (Afu1g03540),+
same,"sensitivity, CAS (0.25 μg/mL)",[2]; ΔdspD (Afu2g02760),+
same,"sensitivity, CAS (0.25 μg/mL)",[2]; ΔltpA (Afu2g01880),+
same,"sensitivity, CAS (0.25 μg/mL)",[2]; ΔmpkA,−
same,"sensitivity, CAS (0.25 μg/mL)",[2]; ΔmpkB,+
same,"sensitivity, CAS (0.25 μg/mL)",[2]; ΔmpkC,+
same,"sensitivity, CAS (0.25 μg/mL)",[2]; ΔnemA (Afu1g09460),+
same,"sensitivity, CAS (0.25 μg/mL)",[2]; ΔpphA (Afu5g12010),+
same,"sensitivity, CAS (0.25 μg/mL)",[2]; ΔppmA (Afu8g04580),+
same,"sensitivity, CAS (0.25 μg/mL)",[2]; ΔppsA (Afu5g11690),+
same,"sensitivity, CAS (0.25 μg/mL)",[2]; ΔpptA (Afu5g06700),+
same,"sensitivity, CAS (0.25 μg/mL)",[2]; ΔppzA (Afu2g03950),+
same,"sensitivity, CAS (0.25 μg/mL)",[2]; ΔpsrA (Afu1g04790),+
same,"sensitivity, CAS (0.25 μg/mL)",[2]; ΔptcA (Afu1g15800),+
same,"sensitivity, CAS (0.25 μg/mL)",[2]; ΔptcB (Afu1g09280),+
same,"sensitivity, CAS (0.25 μg/mL)",[2]; ΔptcD (Afu5g13740),+
same,"sensitivity, CAS (0.25 μg/mL)",[2]; ΔptcE (Afu2g03890),+
same,"sensitivity, CAS (0.25 μg/mL)",[2]; ΔptcF (Afu1g06860),+
same,"sensitivity, CAS (0.25 μg/mL)",[2]; ΔptcG (Afu5g13340),+
same,"sensitivity, CAS (0.25 μg/mL)",[2]; ΔptcH (Afu4g00720),+
same,"sensitivity, CAS (0.25 μg/mL)",[2]; ΔptpB (Afu3g10970),+
same,"sensitivity, CAS (0.25 μg/mL)",[2]; ΔptyA (Afu6g06650),+
same,"sensitivity, CAS (0.25 μg/mL)",[2]; ΔpypA (Afu4g04710),+
same,"sensitivity, CAS (0.25 μg/mL)",[2]; ΔsakA,+
same,"sensitivity, CAS (0.25 μg/mL)","[2]; ΔsakA, ΔmpkC",+
same,"sensitivity, CAS (0.25 μg/mL)",[2]; ΔsitA (Afu6g11470),+
same,"sensitivity, CAS (0.25 μg/mL)",[2]; ΔyphA (Afu4g07000),+
same,decrease of survival (CFUs),[3],about 50%
same,chitin synthase gene expression,[4],induce some of these genes
same,MIC,[5],32 µg/mL
same,fluorescent germlings (membrane depolarization),[6],~25%
same,"growth, CAS alone","[7]; CM7555 CAS^R, CAS 0.25 μg/mL",+
same,"growth, CAS alone","[7]; CM7555 CAS^R, CAS 2 μg/mL",+
same,"growth, CAS alone","[7]; CM7555 CAS^R, CAS 4 μg/mL",+
same,"growth, CAS alone","[7]; DPL1033 CAS^R, CAS 0.25 μg/mL",+
same,"growth, CAS alone","[7]; DPL1033 CAS^R, CAS 2 μg/mL",+
same,"growth, CAS alone","[7]; DPL1033 CAS^R, CAS 4 μg/mL",+
same,"growth, CAS alone","[7]; MD24053 CAS^R, CAS 0.25 μg/mL",+
same,"growth, CAS alone","[7]; MD24053 CAS^R, CAS 2 μg/mL",+
same,"growth, CAS alone","[7]; MD24053 CAS^R, CAS 4 μg/mL",+
same,"growth, CAS alone","[7]; WT, CAS 0.25 μg/mL",+
same,"growth, CAS alone","[7]; WT, CAS 2 μg/mL",+
same,"growth, CAS alone","[7]; WT, CAS 4 μg/mL",+
same,inhibition at 0.25 µg/mL,[8],~10%
same,inhibition at 2 µg/mL,[8],~10%
same,MEC of CAS,[9]; A. fumigatus,0.2 µg/mL and 0.25 µg/mL
same,MEC CAS,[9]; A. fumigatus CM7555 CAS^R,16 µg/mL
same,MEC CAS,[9]; A. fumigatus DPL1033 CAS^R,16 µg/mL
same,MEC CAS,[9]; A. fumigatus MD24053 CAS^R,16 µg/mL
same,MEC CAS,[9]; A. fumigatus WT,0.25 µg/mL
same,MEC CAS,[9]; A. fumigatus clinical isolates susceptible to CAS,0.25 µg/mL
same,MEC CAS,"[9]; CAS-resistant clinical strains DPL1033, MD24053, CM7555",16 µg/mL
same,MIC CAS,[10]; Candida auris 468/2015,1.0 µg/mL
same,MIC CAS,[10]; Candida auris 469/2015,1.0 µg/mL
same,MIC CAS,[10]; Candida auris 470/2015,1.0 µg/mL
same,MIC CAS,[10]; Candida auris 471/2015,1.0 µg/mL
same,MIC,"[10]; Candidozyma auris, Candida auris 467/2015, read-out: MIC CAS",1 µg/mL
same,reduction of fungal burden in the lungs,[11],approximately 50%
